Patent publication US8763410B2, “Method and apparatus for the dissolution and filtration of a hyperpolarized agent with a neutral dissolution media” (General Electric Company, priority 2008, dated 2014)

Legend:
[1] = Measure of pH and EPA residual after neutral (water) dissolution and size exclusion filtration; settings: 22 g water 130° C., 250 psi; receiver 10 g of 360 mM NaOH, 200 mM TRIS, 268 μM EDTA; two 20 μm frits
Protocol: A fluid path syringe was filled with 22 g of 18.2 MΩcm water and 10 g of 360 mM NaOH, 200 mM TRIS and 268 μM EDTA was placed in the fluid path receiver. A mixture of ^12C pyruvic acid and EPA were in the approximate ratio of 53:1 was placed in the sample container of the fluid path. The water in the syringe was heated to 130° C. and was pressurized to 250 psi. The filter body was filled with two frits used as particle size exclusion filters (Varian, part number 12131043, 1.5″ diameter, average pore size 20 μm).

[2] = pH-solubility profile of the EPA; format: physicochemical
Text: In an exemplary embodiment of the invention sterile deionized water is placed in the syringe of the sterile fluid path (SFP), a sample of ^13CPA mixed with EPA is placed in the sample container and NaOH, TRIS, and EDTA are placed in the receiver. Size exclusion filters are placed in the filter cartridge. In this embodiment, the pH-solubility profile of the EPA is considered.

Compound	pH of resulting solution in the receiver [1]	solubility in aqueous solutions ([2]; above pH 4)	particulate diameter ([2]; pH less than 4)	solubility in aqueous solution ([2]; pH less than 4)
CC(=O)C(=O)O [^12C pyruvic acid]	7.97	–	–	–
tris {8-carboxyl-2,2,6,6-tetra[2-(1-methoxyethyl)]-benzo(1,2-d:4,5-d′)bis(1,3)dithiole-4-yl}methyl sodium salt [EPA]	–	soluble	greater than or equal to 10 microns	predominantly insoluble
